What was measured:
JB200 = conditions: CGM medium, 37° C., OD600
Description: (§1) Butanol tolerances of different strains are investigated and compared according to the maximal specific growth rates achieved under the challenge of different concentrations of butanol. Seed cultures are prepared the same way as those used for fermentor fermentation. Then, seeds of different strains are inoculated into 10 ml of CGM medium in serum tubes supplemented with different concentrations of butanol. The tubes are incubated at 37° C. and optical densities (OD600) are measured every 2 h. Growth curves may be drawn according to the OD600 data. Maximal specific growth rates (h^−1) of different strains under different butanol concentrations may be calculated based on the growth curves.

BA 101 = conditions: 12 g/L butanol
Description: as §1

ATCC 824 = conditions: 12 g/L butanol
Description: as §1

[1] = system: C. acetobutylicum ATCC 55025 (parental strain)
Description: as §1

NCIMB 8052 = conditions: 12 g/L butanol
Description: as §1

Substance: butanol
- butanol concentration at which cells still grew (JB200): 16 g/L
- growth in the presence of butanol (BA 101): none of them could grow
- growth in the presence of butanol (ATCC 824): none of them could grow
- butanol concentration above which cell growth stopped ([1]; CGM medium, 37° C., OD600): higher than 12 g/L
- butanol concentration at which growth usually stops (cells lysed) ([1]; general statement, parental strain): 10-12 g/L
- growth in the presence of butanol (NCIMB 8052): none of them could grow

Source: patent publication US8450093B1, “Adaptive engineering of clostridium for increased butanol production” (The Ohio State University, priority 2010, dated 2013)
